The conditions of series [1]: combination of verapamil and VAD (vincristine, doxorubicin, dexamethasone); cited from earlier work.
The subject of series [2] is P-gp-associated resistance. Put plainly: in vivo activity in preclinical animal studies.
Series [3] is described as follows: pharmacokinetic interaction with co-administered oncolytics in preclinical models. Conditions: several oncolytics. The class given is in vivo.
Another series concerns AML. Conditions: older patients, Mylotarg alone, registration trials; cited from earlier work.

“Also recorded” adds a separate entry of the source.

In the case of `COc1ccc(CCN(C)CCCC(C#N)(c2ccc(OC)c(OC)c2)C(C)C)cc1OC` (stereo not shown) [verapamil], the patients responded in series [1] is given as 5 of 22.

Consider `O[C@@H](COc1cccc2ncccc12)CN1CCN([C@@H]2c3ccccc3[C@@H]3[C@H](c4ccccc42)C3(F)F)CC1` [zosuquidar], for which the in vivo activity result in series [2] was “good in vivo activity”. In addition, the “pharmacokinetic interaction with co-administered chemotherapy” value in series [3] is “no pharmacokinetic interaction; also recorded: minimal pharmacokinetic (PK) interactions”.

For the compound gemtuzumab ozogamicin [Mylotarg], the “rate of complete remission (CR+CRp)” value in the series with AML is reported as 26%.

The values above are taken from patent US20070009531A1 (priority 2005, published 2007).
